Test results reported in ChEMBL document CHEMBL1127912, “The contribution to binding of the pyranoside substituents in the excised binding domain of FK-506” (Bioorg Med Chem Lett, 1994).

Target: Peptidyl-prolyl cis-trans isomerase FKBP1A (Homo sapiens, UniProt P62942)
Test: Ability to displace radiolabeled FK-506 derivative from FK506 binding protein 12

Chain of Peptidyl-prolyl cis-trans isomerase FKBP1A (P62942 whole entry): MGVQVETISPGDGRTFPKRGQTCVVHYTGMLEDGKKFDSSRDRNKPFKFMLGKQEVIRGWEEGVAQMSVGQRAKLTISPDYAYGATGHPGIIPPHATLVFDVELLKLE

Kd [µM] | Compound
0.01 | C=CCCC[C@H](OC(=O)[C@@H]1CCCCN1C(=O)C(=O)[C@]1(O)O[C@H](COC)[C@@H](OC)C[C@H]1C)/C(C)=C/[C@@H]1CC[C@@H](O)[C@H](OC)C1
40 | C=CCCC[C@H](OC(=O)[C@@H]1CCCCN1C(=O)C(=O)[C@@]1(O)CC[C@H](OC)[C@@H](COC)O1)/C(C)=C/[C@@H]1CC[C@@H](O)[C@H](OC)C1
29 | C=CCCC[C@H](OC(=O)[C@@H]1CCCCN1C(=O)C(=O)[C@@]1(O)CCCCO1)/C(C)=C/[C@@H]1CC[C@@H](O)[C@H](OC)C1
